From patent US8614366B2, “Methods for genetic plant transformation using water-soluble fullerene derivatives” (priority 2009, dated 2013)
“Also recorded” adds a separate entry of the source.

Experiments:
[1] = test system: peanut; conditions: increased from 3.9% with no antioxidant; cited from earlier work
[2] = test system: CAMBIA 1302 plasmid; experiment: DNA binding by agarose gel electrophoresis (gel mobility); conditions: 50 ng plasmid, 100-300 ng fullerene compound, preincubated 15-30 minutes
Protocol: Each tube was allowed to bind for 15-30 minutes and then place on an agarose gel. […] After running the gel, the bands were visualized using post-staining with commercial SBER SAFE™ 10000× stain.
DNA binding was measured at different fullerene nanoparticle/DNA ratios. The DNA-binding ability of the fullerene test compounds 1, 2, 4, and 6 was examined by direct DNA binding and agarose gel electrophoresis. […] In each case, 50 ng plasmid DNA was preincubated for 30 minutes with 100-300 nG fullerene compound (FIG. 8). The DNA binding titration of plasmid pCAMBIA 1302 with compound 6 was carried with 50 nG pCAMBIA 1302 and various concentrations (93-3000 nG per 10 microL). Results shown in FIG. 8 indicate optimal binding at a concentration of ˜5-6 equivalents fullerene per DNA. FIG. 8 Lane 1: 50 ng of DNA Plasmid DNA only, Lane 2: 50 ng of DNA Plasmid DNA+3000 ng compound 6 (50 equiv), Lane 3: 50 ng of DNA Plasmid DNA+1500 ng compound 6 (25 equiv), Lane 4: 50 ng of DNA Plasmid DNA+750 ng compound 6 (12 equiv), Lane 5: 50 ng of DNA Plasmid DNA+375 ng compound 6 (6 equiv), Lane 6: 50 ng of DNA Plasmid DNA+187 ng compound 6 (3 equiv), Lane 7: 50 ng of DNA Plasmid DNA+93 ng compound 6 (1.5 equiv). Compound 6 stock solution (0.3 mg/mL) was diluted with TE buffer and 10 microL each fullerene dilution was reincubated with plasmid for […] to loading on the gel.

[3] = test system: tobacco protoplast cells; experiment: Fullerene-enhanced electroporation, GFP expression; assay type: cell-based, Nicotiana tabacum; conditions: tobacco protoplasts, GFP DNA, fluorescence microscope; without fullerene no GFP expression
Protocol: One embodiment of the invention is called fullerene-enhanced electroporation. The method comprises (1) mixing fullerene derivative solution with the DNA of interest, (2) addition of fullerene derivative/DNA solution to plant cells or plant protoplasts, and (3) treatment of the mixture in a Gene Pulser cuvette or similar electroporation apparatus for a few minutes. Suspension was then incubated for 2-3 hours or overnight to allow DNA transfer and gene expression to take place. […] On the left is the light microscope picture showing tobacco protoplast cells after electroporation. […] Experiments to test the fullerene nanoparticles for transformation ability used tobacco protoplasts for transient assays. Sterile suspension cultures (5% w/v) of tobacco (Nicotiana tabacum) were grown in MS basal salts media. Suspension cells were incubated in enzyme solution (0.6 M mannitol, 10 mM MES, 1% Cellulase, 0.2% pectinase) at pH 5.7 in the dark, at 24° C. overnight. After incubation, protoplasts were passed through […] nylon mesh, washed and protoplasts pelleted by centrifugation. Protoplasts were resuspended in the appropriate media required for transformation studies. Electroporation is the process where cells are mixed with a DNA construct and then briefly exposed to pulses of high voltage. […]

Compound	Transformation frequencies [1] [%]	DNA binding (change in gel mobility) [2]	GFP expression after electroporation [3]
tocopherol	10.3	–	–
O=[Se](O)O [selenite]	12.4	–	–
N[C@@H](CCC(=O)N[C@@H](CS)C(=O)NCC(=O)O)C(=O)O [glutathione]	14.6	–	–
polyhydroxy-C60 [Compound 1]	–	no DNA binding effect; also recorded: no binding to DNA	gene insertion and GFP expression
FC4S [Compound 2]	–	no DNA binding effect; also recorded: no binding to DNA	–
